# From PubChem BioAssay (NCI)
#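 Values below derive from 48-hour exposures of cells grown in 96-well plates, with endpoints linearly interpolated between the two concentrations bracketing the appropriate inhibition level. GI50: concentration for 50% inhibition of growth. Definition used: TGI = concentration required for complete inhibition of growth.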
# Assays:
# Test in all cases: NCI-60 cell line screen, 48 h
# BT-549 breast = tested on: BT-549 breast
# SF-268 CNS = tested on: SF-268 CNS
# UO-31 renal = tested on: UO-31 renal
# CCRF-CEM leukemia = tested on: CCRF-CEM leukemia
# U251 CNS = tested on: U251 CNS
# NCI/ADR-RES ovarian = tested on: NCI/ADR-RES ovarian
# HCT-116 colon = tested on: HCT-116 colon
# NCI-H460 lung = tested on: NCI-H460 lung
# HL-60(TB) leukemia = tested on: HL-60(TB) leukemia
# SK-OV-3 ovarian = tested on: SK-OV-3 ovarian
# SN12C renal = tested on: SN12C renal
# NCI-H23 lung = tested on: NCI-H23 lung
# HS 578T breast = tested on: HS 578T breast
# OVCAR-8 ovarian = tested on: OVCAR-8 ovarian
# SW-620 colon = tested on: SW-620 colon
# ACHN renal = tested on: ACHN renal
# K-562 leukemia = tested on: K-562 leukemia
# SF-295 CNS = tested on: SF-295 CNS
# SR leukemia = tested on: SR leukemia
# SNB-19 CNS = tested on: SNB-19 CNS
# NCI-H226 lung = tested on: NCI-H226 lung
# MCF7 breast = tested on: MCF7 breast
# SK-MEL-28 melanoma = tested on: SK-MEL-28 melanoma
# UACC-257 melanoma = tested on: UACC-257 melanoma
# HCT-15 colon = tested on: HCT-15 colon
# NCI-H522 lung = tested on: NCI-H522 lung
# OVCAR-3 ovarian = tested on: OVCAR-3 ovarian
# SNB-75 CNS = tested on: SNB-75 CNS
# MOLT-4 leukemia = tested on: MOLT-4 leukemia
# LOX IMVI melanoma = tested on: LOX IMVI melanoma
# CAKI-1 renal = tested on: CAKI-1 renal
# RXF 393 renal = tested on: RXF 393 renal
# A498 renal = tested on: A498 renal
# OVCAR-4 ovarian = tested on: OVCAR-4 ovarian
# TK-10 renal = tested on: TK-10 renal
# IGROV1 ovarian = tested on: IGROV1 ovarian
# SF-539 CNS = tested on: SF-539 CNS
# MDA-MB-435 = tested on: MDA-MB-435
# 786-0 renal = tested on: 786-0 renal
# KM12 colon = tested on: KM12 colon
# HT29 colon = tested on: HT29 colon
# HCC-2998 colon = tested on: HCC-2998 colon
# T-47D breast = tested on: T-47D breast
# EKVX NSCLC = tested on: EKVX NSCLC
# UACC-62 melanoma = tested on: UACC-62 melanoma
# MALME-3M melanoma = tested on: MALME-3M melanoma
# PC-3 prostate = tested on: PC-3 prostate
# HOP-92 NSCLC = tested on: HOP-92 NSCLC
# MDA-MB-231 breast = tested on: MDA-MB-231 breast
# HOP-62 NSCLC = tested on: HOP-62 NSCLC
# SK-MEL-2 melanoma = tested on: SK-MEL-2 melanoma
# A549 NSCLC = tested on: A549 NSCLC
# M14 melanoma = tested on: M14 melanoma
# OVCAR-5 ovarian = tested on: OVCAR-5 ovarian
# COLO 205 colon = tested on: COLO 205 colon
# SK-MEL-5 melanoma = tested on: SK-MEL-5 melanoma
# DU-145 prostate = tested on: DU-145 prostate
# RPMI-8226 leukemia = tested on: RPMI-8226 leukemia
structure (smiles),measurement,setting,value
C=CC(=O)N1C[C@H](COc2nc(Nc3cnn(C)c3)nc3[nH]cc(Cl)c23)[C@@H](OC)C1,GI50,BT-549 breast,0.992 µM
same,TGI,BT-549 breast,8.34 µM
same,GI50,SF-268 CNS,0.965 µM
same,TGI,SF-268 CNS,15.5 µM
same,GI50,UO-31 renal,1.55 µM
same,TGI,UO-31 renal,11 µM
same,GI50,CCRF-CEM leukemia,0.635 µM
same,TGI,CCRF-CEM leukemia,> 100 µM
same,GI50,U251 CNS,0.991 µM
same,TGI,U251 CNS,17.5 µM
same,GI50,NCI/ADR-RES ovarian,18 µM
same,TGI,NCI/ADR-RES ovarian,65.3 µM
same,GI50,HCT-116 colon,1.24 µM
same,TGI,HCT-116 colon,14.3 µM
same,GI50,NCI-H460 lung,4.13 µM
same,TGI,NCI-H460 lung,18.6 µM
same,GI50,HL-60(TB) leukemia,3.31 µM
same,TGI,HL-60(TB) leukemia,13 µM
same,GI50,SK-OV-3 ovarian,0.225 µM
same,TGI,SK-OV-3 ovarian,1.2 µM
same,GI50,SN12C renal,2.29 µM
same,TGI,SN12C renal,15.7 µM
same,GI50,NCI-H23 lung,4.1 µM
same,TGI,NCI-H23 lung,18.9 µM
same,GI50,HS 578T breast,1.01 µM
same,TGI,HS 578T breast,4.31 µM
same,GI50,OVCAR-8 ovarian,4.74 µM
same,TGI,OVCAR-8 ovarian,24.5 µM
same,GI50,SW-620 colon,1.15 µM
same,TGI,SW-620 colon,16.2 µM
same,GI50,ACHN renal,0.993 µM
same,TGI,ACHN renal,13.3 µM
same,GI50,K-562 leukemia,4.75 µM
same,TGI,K-562 leukemia,> 100 µM
same,GI50,SF-295 CNS,11.6 µM
same,TGI,SF-295 CNS,24.2 µM
same,GI50,SR leukemia,0.65 µM
same,TGI,SR leukemia,> 100 µM
same,GI50,SNB-19 CNS,3.41 µM
same,TGI,SNB-19 CNS,16.2 µM
same,GI50,NCI-H226 lung,0.97 µM
same,TGI,NCI-H226 lung,21.7 µM
same,GI50,MCF7 breast,1.22 µM
same,TGI,MCF7 breast,13.8 µM
same,GI50,SK-MEL-28 melanoma,8.43 µM
same,TGI,SK-MEL-28 melanoma,25.9 µM
same,GI50,UACC-257 melanoma,6.64 µM
same,TGI,UACC-257 melanoma,28 µM
same,GI50,HCT-15 colon,4.74 µM
same,TGI,HCT-15 colon,24.3 µM
same,GI50,NCI-H522 lung,0.431 µM
same,TGI,NCI-H522 lung,17.6 µM
same,GI50,OVCAR-3 ovarian,2.28 µM
same,TGI,OVCAR-3 ovarian,18 µM
same,GI50,SNB-75 CNS,0.357 µM
same,TGI,SNB-75 CNS,2.42 µM
same,GI50,MOLT-4 leukemia,2.02 µM
same,TGI,MOLT-4 leukemia,37.9 µM
same,GI50,LOX IMVI melanoma,0.894 µM
same,TGI,LOX IMVI melanoma,12.2 µM
same,GI50,CAKI-1 renal,1 µM
same,TGI,CAKI-1 renal,3.67 µM
same,GI50,RXF 393 renal,0.509 µM
same,TGI,RXF 393 renal,2.88 µM
same,GI50,A498 renal,0.26 µM
same,TGI,A498 renal,1.14 µM
same,GI50,OVCAR-4 ovarian,2.15 µM
same,TGI,OVCAR-4 ovarian,14.1 µM
same,GI50,TK-10 renal,1.16 µM
same,TGI,TK-10 renal,10.6 µM
same,GI50,IGROV1 ovarian,0.438 µM
same,TGI,IGROV1 ovarian,2.79 µM
same,GI50,SF-539 CNS,1.28 µM
same,TGI,SF-539 CNS,4.61 µM
same,GI50,MDA-MB-435,3 µM
same,TGI,MDA-MB-435,16.4 µM
same,GI50,786-0 renal,1.96 µM
same,TGI,786-0 renal,29.6 µM
same,GI50,KM12 colon,0.342 µM
same,TGI,KM12 colon,14 µM
same,GI50,HT29 colon,5.24 µM
same,TGI,HT29 colon,48.6 µM
same,GI50,HCC-2998 colon,5.47 µM
same,TGI,HCC-2998 colon,19.4 µM
same,GI50,T-47D breast,2.01 µM
same,TGI,T-47D breast,17.6 µM
same,GI50,EKVX NSCLC,1.23 µM
same,TGI,EKVX NSCLC,8.55 µM
same,GI50,UACC-62 melanoma,2.89 µM
same,TGI,UACC-62 melanoma,14.3 µM
same,GI50,MALME-3M melanoma,10.9 µM
same,TGI,MALME-3M melanoma,24.4 µM
same,GI50,PC-3 prostate,3.98 µM
same,TGI,PC-3 prostate,55.3 µM
same,GI50,HOP-92 NSCLC,1.25 µM
same,TGI,HOP-92 NSCLC,4.87 µM
same,GI50,MDA-MB-231 breast,2.84 µM
same,TGI,MDA-MB-231 breast,16.1 µM
same,GI50,HOP-62 NSCLC,4.12 µM
same,TGI,HOP-62 NSCLC,28.5 µM
same,GI50,SK-MEL-2 melanoma,11.5 µM
same,TGI,SK-MEL-2 melanoma,25.7 µM
same,GI50,A549 NSCLC,2.8 µM
same,TGI,A549 NSCLC,14.8 µM
same,GI50,M14 melanoma,4.49 µM
same,TGI,M14 melanoma,20.3 µM
same,GI50,OVCAR-5 ovarian,3.18 µM
same,TGI,OVCAR-5 ovarian,48.4 µM
same,GI50,COLO 205 colon,2.83 µM
same,TGI,COLO 205 colon,14.6 µM
same,GI50,SK-MEL-5 melanoma,11.5 µM
same,TGI,SK-MEL-5 melanoma,23.6 µM
same,GI50,DU-145 prostate,1.45 µM
same,TGI,DU-145 prostate,15.4 µM
same,GI50,RPMI-8226 leukemia,3.29 µM
same,TGI,RPMI-8226 leukemia,22.7 µM
